Assay results published in patent EP4803080A1, “METHOD FOR TREATING LEUKEMIA” (Shenzhen TargetRx Co., Ltd., priority 2023, dated 2025).
Read-outs that look alike come from different tables or passages of the source.

How the values were obtained:
[1] = tested on: Ba/F3 BCR-ABL1 E255V/T315I; assay: Cell growth inhibition activity test, single agents and combinations (CellTiter-Glo, Chou-Talalay); format: cell-based; details: Mus musculus, BaF3; single agent; E255V/T315I; 72 hours; read-out: IC50
Method: (§1) A series of cell lines expressing BCR-ABL1 single mutations and compound mutations were constructed based on the Ba/F3 mouse pro-B cell line.
(§2) This assay utilized the CellTiter-Glo (CTG) kit provided by Promega, which is a homogeneous method for cell viability detection, measuring the viability of cultured cells by quantifying ATP. Cells were seeded in 96-well plates and treated with different concentrations of test substances. […] At the end of the treatment, CTG reagent (CellTiter-Glo kit) was added according to the manufacturer's instructions to detect cell viability values. Plates were read on a microplate reader (Biotek cytation 3.0). IC50 values were calculated using GraphPad Prism 7.0 software.

[2] = tested on: Ba/F3 BCR-ABL1 Y253H/T315I; assay: as above; format: cell-based, mouse; details: BCR-ABL1 Y253H/T315I, read-out: IC50^I1
Method: as §1, §2

[3] = tested on: Ba/F3 BCR-ABL1 T315M; assay: as above; format: cell-based, mouse; details: Mus musculus, BaF3, 72 h, single agent; T315M; 72 hours; read-out: IC50
Method: as §1, §2

[4] = tested on: CML-CP with T315I mutation; assay: Phase I dose escalation and dose expansion clinical trial: efficacy in CML-CP subjects with T315I mutation; format: in vivo, humans
Description: This study is a single-arm, open-label, dose-escalation and dose-expansion Phase I clinical trial.
The dose-escalation phase of this trial consists of about 8 dose groups, with oral administration under fasting conditions. Subjects in all dose groups will receive a single dose on Day 1 (D1), followed by pharmacokinetic (PK) and tolerability observations. […] After entering the multiple-dose period, subjects in the first dose group will initially receive twice-daily (BID) dosing (if PK data from the single-dose period are available, the dosing frequency during the multiple-dose period may be adjusted based on the PK data). The dosing frequency for subjects in subsequent dose groups after entering the multiple-dose period will be determined based on available PK and tolerability data. Throughout the trial, dosing frequency for all subjects may be adjusted based on continuously updated safety and PK data.
A continuous reassessment method (CRM) based on the principle of the escalation with overdose control (EWOC) design will be used to recommend the next specific dose for each dose escalation, thereby completing dose escalation and determining the maximum tolerated dose (MTD). If both the investigator and sponsor believe that higher dose groups may offer better efficacy and manageable safety, the EWOC-based CRM method may be used to explore higher doses. All enrolled subjects will receive long-term treatment with the test drug and undergo evaluations for safety, tolerability, and preliminary efficacy.
After obtaining certain research data from the dose-escalation phase, the investigator may comprehensively consider safety, efficacy, and other information to decide whether to enroll additional subjects at the MTD and/or lower dose levels to determine the recommended Phase II dose (RP2D). Two to four suitable dosing regimens will be selected for expansion in the target population (including subjects enrolled at the target dose levels during the escalation phase).
A total of 8 dose groups were established: 10 mg bid, 20 mg bid, 40 mg bid, 80 mg bid, 40 mg qd, 80 mg qd, 160 mg qd, and 240 mg qd.
The dose expansion phase was conducted in the following 3 cohorts: • Cohort 1: Subjects with chronic phase (CP) chronic myeloid leukemia (CML) who had previously received at least ≥2 different TKIs and were T315I-negative. A total of 3 dose groups were established: 40 mg qd, 80 mg qd, and 240 mg qd; • Cohort 2: Subjects with chronic phase (CP) chronic myeloid leukemia (CML) who have previously received ≥1 TKI and were T315I-positive. A total of 2 dose groups were established: 40 mg qd and 240 mg qd; • Cohort 3: Subjects with accelerated phase (AP) chronic myeloid leukemia (CML) who have previously received ≥1 TKI, regardless of T315I positivity. A total of 1 dose group was established: 240 mg qd.

[5] = CML-CP subjects with T315I mutation, all doses, 16 evaluable, as of August 24, 2023
[6] = CML-CP subjects with T315I mutation, as of August 24, 2023
[7] = CML-CP subjects with T315I mutation, as of June 2, 2024
[8] = CML-CP with T315I mutation, 10 mg BID, 0 evaluable subjects, as of August 24, 2023
[9] = CML-CP with T315I mutation, 20 mg BID, 1 evaluable subject, as of August 24, 2023
[10] = CML-CP with T315I mutation, 40 mg BID, 1 evaluable subject, as of August 24, 2023
[11] = CML-CP with T315I mutation, 40 mg QD, 2 evaluable subjects, as of August 24, 2023
[12] = CML-CP with T315I mutation, 40 mg/day Total, 3 evaluable subjects, as of August 24, 2023
[13] = CML-CP with T315I mutation, 80 mg BID, 1 evaluable subject, as of August 24, 2023
[14] = CML-CP with T315I mutation, 80 mg QD, 0 evaluable subjects, as of August 24, 2023
[15] = CML-CP with T315I mutation, 80 mg/day Total, 1 evaluable subject, as of August 24, 2023
[16] = CML-CP with T315I mutation, 160 mg QD, 1 evaluable subject, as of August 24, 2023
[17] = CML-CP with T315I mutation, 160 mg/day Total, 2 evaluable subjects, as of August 24, 2023
[18] = CML-CP with T315I mutation, 240 mg QD, 10 evaluable subjects, as of August 24, 2023
[19] = CML-CP with T315I mutation, Total, all dose groups, 16 evaluable subjects, as of August 24, 2023

`O=C(Nc1ccc(OC(F)(F)Cl)cc1)c1cnc(N2CC[C@@H](F)C2)c(-c2cnccn2)c1` [Compound A, (R)-N-(4-(chlorodifluoromethoxy)phenyl)-6-(3-fluoropyrrolidin-1-yl)-5-(pyrazin-2-yl)nicotinamide] showed an IC50 [1] of 0.151 µM, an IC50 ([2]; IC50 of Compound A (I1) in Combination with olverembatinib (I2)) of 0.0653 µM and an IC50 ([2]; IC50 of Compound A (I1) in Combination with ponatinib (I2)) of 0.166 µM. It also gave an IC50 ([2]; Mus musculus, BaF3, 72 h, Monotherapy (Table 12)) of 12.3 µM, an IC50 [3] greater than 1 µM and a CHR ([4]; CML-CP subjects with T315I mutation, all doses, 13 evaluable, as of August 24, 2023) of 92.3%. The CCyR [4, 5] was 56.3%, the MCyR [4, 5] was 62.5% and the MMR ([4]; CML-CP subjects with T315I mutation, all doses, 17 evaluable, as of August 24, 2023) was 35.3%. For the same compound, the “CHR within 3 treatment cycles” value ([4]; CML-CP subjects with T315I mutation, 20 evaluable, as of June 2, 2024) was 80%, the “median time to CCyR” value [4, 6] was 2.83 (2.76, 2.92) months and the “median time to MCyR” value [4, 6] was 2.81 (2.76, 2.83) months. The “median time to MMR” value [4, 6] was 2.81 (2.76, 3.68) months, the “18-month cumulative incidence of CCyR” value [4, 7] was 69% and the “18-month cumulative incidence of MCyR” value [4, 7] was 76%. For the same compound, the “18-month cumulative incidence of MMR” value [4, 7] was 50%, the CCyR [4, 8] was 0 n (%) and the CHR [4, 8] was 0 n (%). The MCyR [4, 8] was 0 n (%), the MMR [4, 8] was 0 n (%) and the CCyR [4, 9] was 1 (100) n (%). The CHR [4, 9] was 1 (100) n (%), the MCyR [4, 9] was 1 (100) n (%) and the MMR [4, 9] was 0 n (%). The CCyR [4, 10] was 0 n (%), the CHR [4, 10] was 1 (100) n (%) and the MCyR [4, 10] was 0 n (%). The MMR [4, 10] was 0 n (%), the CHR ([4]; CML-CP with T315I mutation, 40 mg QD, 0 evaluable subjects, as of August 24, 2023) was 0 n (%) and the CCyR [4, 11] was 2 (100) n (%). For the same compound, the MCyR [4, 11] was 2 (100) n (%), the MMR ([4]; CML-CP with T315I mutation, 40 mg QD, 3 evaluable subjects, as of August 24, 2023) was 2 (66.7) n (%) and the CHR ([4]; CML-CP with T315I mutation, 40 mg/day Total, 1 evaluable subject, as of August 24, 2023) was 1 (100) n (%). For the same compound, the CCyR [4, 12] was 3 (100) n (%), the MCyR [4, 12] was 3 (100) n (%) and the MMR ([4]; CML-CP with T315I mutation, 40 mg/day Total, 4 evaluable subjects, as of August 24, 2023) was 2 (50.0) n (%). The CHR ([4]; CML-CP with T315I mutation, 80 mg BID, 0 evaluable subjects, as of August 24, 2023) was 0 n (%), the CCyR [4, 13] was 1 (100) n (%) and the MCyR [4, 13] was 1 (100) n (%). For the same compound, the MMR [4, 13] was 1 (100) n (%), the CCyR [4, 14] was 0 n (%) and the CHR [4, 14] was 0 n (%). The MCyR [4, 14] was 0 n (%), the MMR [4, 14] was 0 n (%) and the CCyR [4, 15] was 0 n (%). For the same compound, the CHR [4, 15] was 1 (100) n (%), the MCyR [4, 15] was 0 n (%) and the MMR [4, 15] was 0 n (%). For the same compound, the CCyR [4, 16] was 1 (100) n (%), the CHR [4, 16] was 1 (100) n (%) and the MCyR [4, 16] was 1 (100) n (%). For the same compound, the MMR [4, 16] was 1 (100) n (%), the CHR ([4]; CML-CP with T315I mutation, 160 mg/day Total, 1 evaluable subject, as of August 24, 2023) was 1 (100) n (%) and the CCyR [4, 17] was 2 (100) n (%). For the same compound, the MCyR [4, 17] was 2 (100) n (%), the MMR [4, 17] was 2 (100) n (%) and the CCyR [4, 18] was 4 (40.0) n (%). For the same compound, the CHR [4, 18] was 9 (90.0) n (%), the MCyR [4, 18] was 5 (50.0) n (%) and the MMR [4, 18] was 2 (20.0) n (%). The CHR ([4]; CML-CP with T315I mutation, Total, all dose groups, 13 evaluable subjects, as of August 24, 2023) was 12 (92.3) n (%), the CCyR [4, 19] was 9 (56.3) n (%) and the MCyR [4, 19] was 10 (62.5) n (%). For the same compound, the MMR ([4]; CML-CP with T315I mutation, Total, all dose groups, 17 evaluable subjects, as of August 24, 2023) was 6 (35.3) n (%).
